Data taken from ChEMBL document CHEMBL5143615, “Novel 2-aryl-4-aryloxyquinoline-based fungistatics for Mucor circinelloides. Biological evaluation of activity, QSAR and docking study” (Bioorg Med Chem Lett, 2022).
≈ marks a conversion by molar mass, not a printed value. Calls of active or inactive are those of the source. The rule behind the calls is not given here.

How the values were obtained:
[1] = system: Mucor circinelloides; test: Antifungal activity against Mucor circinelloides R7B wild type strain assessed as reduction in spore germination at 25 ug/ml relative to control; type: functional; parameters: scale not given: the % may be the effect or the level left; conditions: dose 25 µg/ml
[2] = molecular target: T1, Lanosterol 14-alpha demethylase (Mus musculus, UniProt Q8K0C4); test: Inhibition of CYP51 in mouse NIH/3T3 cells assessed as specific enzymatic activity at 100 ug/ml incubated for 48 hrs by ELISA analysis; type: ADME, cell-based; conditions: nih/3t3, 48 h, dose 100 µg/ml
T1 sequence (Q8K0C4 whole entry): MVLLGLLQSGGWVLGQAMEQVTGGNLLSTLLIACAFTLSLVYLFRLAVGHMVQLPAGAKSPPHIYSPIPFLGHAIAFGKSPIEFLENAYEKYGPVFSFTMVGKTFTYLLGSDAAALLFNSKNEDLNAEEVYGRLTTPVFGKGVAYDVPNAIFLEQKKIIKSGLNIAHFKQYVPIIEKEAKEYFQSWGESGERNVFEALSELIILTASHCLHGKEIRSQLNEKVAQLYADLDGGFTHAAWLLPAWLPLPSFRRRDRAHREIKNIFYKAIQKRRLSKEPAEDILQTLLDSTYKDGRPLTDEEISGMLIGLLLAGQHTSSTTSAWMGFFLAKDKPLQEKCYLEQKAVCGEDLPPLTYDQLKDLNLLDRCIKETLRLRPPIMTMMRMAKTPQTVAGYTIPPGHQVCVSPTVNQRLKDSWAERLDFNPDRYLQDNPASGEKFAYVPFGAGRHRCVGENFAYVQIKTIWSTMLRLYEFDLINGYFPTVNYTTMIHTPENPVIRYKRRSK

[3] = system: Mucor circinelloides; test: Antifungal activity against Mucor circinelloides R7B wild type strain assessed as reduction in spore germination at 50 ug/ml relative to control; type: functional; parameters: scale not given: the % may be the effect or the level left; conditions: dose 50 µg/ml
[4] = molecular target: T1, Lanosterol 14-alpha demethylase; test: Inhibition of CYP51 in mouse NIH/3T3 cells assessed as specific enzymatic activity at 150 ug/ml incubated for 48 hrs by ELISA analysis; type: ADME, cell-based; conditions: nih/3t3, 48 h, dose 150 µg/ml
[5] = system: Mucor circinelloides; test: Antifungal activity against Mucor circinelloides R7B wild type strain assessed as non-germinated spores and undifferentiated hyphae at 50 ug/ml by microscopic analysis; type: functional, organism-based; conditions: dose 50.0 µg/ml
[6] = molecular target: T1, Lanosterol 14-alpha demethylase; test: Inhibition of CYP51 in mouse NIH/3T3 cells assessed as specific enzymatic activity at 50 ug/ml incubated for 48 hrs by ELISA analysis; type: ADME, cell-based; conditions: nih/3t3, 48 h, dose 50 µg/ml
[7] = system: Mucor circinelloides; test: Antifungal activity against Mucor circinelloides M5 strain assessed as reduction in spore germination at 150 ug/ml relative to control; type: functional; parameters: scale not given: the % may be the effect or the level left; conditions: dose 150 µg/ml
[8] = system: Mucor circinelloides; test: Antifungal activity against Mucor circinelloides R7B wild type strain assessed as reduction in spore germination at 100 ug/ml relative to control; type: functional; parameters: scale not given: the % may be the effect or the level left; conditions: dose 100 µg/ml
[9] = molecular target: T1, Lanosterol 14-alpha demethylase; test: Inhibition of CYP51 in mouse NIH/3T3 cells assessed as specific enzymatic activity at 25 ug/ml incubated for 48 hrs by ELISA analysis; type: ADME, cell-based; conditions: nih/3t3, 48 h, dose 25 µg/ml
[10] = system: Mucor circinelloides; test: Antifungal activity against Mucor circinelloides M5 strain assessed as reduction in spore germination at 50 ug/ml relative to control; type: functional; parameters: scale not given: the % may be the effect or the level left; conditions: dose 50 µg/ml
[11] = system: Mucor circinelloides; test: Antifungal activity against Mucor circinelloides M5 strain assessed as few mycelia with several spores at 50 ug/ml by microscopic analysis; type: functional, organism-based; conditions: dose 50.0 µg/ml
[12] = Cytotoxicity against mouse NIH/3T3 cells assessed as reduction in cell viability at 25 ug/ml incubated for 48 hrs by MTT assay (reference value: 93.8 +/- 4.9 %); type: toxicity, cell-based, NIH3T3; conditions: at 25 µg/mL, read-out: Activity
[13] = Cytotoxicity against mouse NIH/3T3 cells assessed as reduction in cell viability at 200 ug/ml incubated for 48 hrs by MTT assay (reference value: 93.8 +/- 4.9 %); type: toxicity, cell-based, NIH3T3; conditions: at 200 µg/mL, read-out: Activity
[14] = system: Mucor circinelloides; test: Antifungal activity against Mucor circinelloides R7B wild type strain assessed as reduction in spore germination at 150 ug/ml relative to control; type: functional; parameters: scale not given: the % may be the effect or the level left; conditions: dose 150 µg/ml
[15] = Cytotoxicity against mouse NIH/3T3 cells assessed as reduction in cell viability at 150 ug/ml incubated for 48 hrs by MTT assay (reference value: 93.8 +/- 4.9 %); type: toxicity, cell-based, NIH3T3; conditions: at 150 µg/mL, read-out: Activity
[16] = molecular target: T1, Lanosterol 14-alpha demethylase; test: Inhibition of CYP51 in mouse NIH/3T3 cells assessed as specific enzymatic activity at 200 ug/ml incubated for 48 hrs by ELISA analysis; type: ADME, cell-based; conditions: nih/3t3, 48 h, dose 200 µg/ml
[17] = system: Mucor circinelloides; test: Antifungal activity against Mucor circinelloides M5 strain assessed as non-germinated spores at 100 to 150 ug/ml by microscopic analysis; type: functional, organism-based; conditions: dose 100-150 µg/ml
[18] = system: Mucor circinelloides; test: Antifungal activity against Mucor circinelloides M5 strain assessed as reduction in spore germination at 25 ug/ml relative to control; type: functional; parameters: scale not given: the % may be the effect or the level left; conditions: dose 25 µg/ml
[19] = Cytotoxicity against mouse NIH/3T3 cells assessed as reduction in cell viability at 100 ug/ml incubated for 48 hrs by MTT assay (reference value: 93.8 +/- 4.9 %); type: toxicity, cell-based, NIH3T3; conditions: at 100 µg/mL, read-out: Activity
[20] = system: Mucor circinelloides; test: Antifungal activity against Mucor circinelloides M5 strain assessed as complete absence of mycelia at 100 to 150 ug/ml by microscopic analysis; type: functional, organism-based; conditions: dose 100-150 µg/ml
[21] = system: Mucor circinelloides; test: Antifungal activity against Mucor circinelloides R7B wild type strain assessed as few mycelia with several spores at 50 ug/ml by microscopic analysis; type: functional, organism-based; conditions: dose 50.0 µg/ml
[22] = system: Mucor circinelloides; test: Antifungal activity against Mucor circinelloides R7B wild type strain assessed as non-germinated spores at 100 to 150 ug/ml by microscopic analysis; type: functional, organism-based; conditions: dose 100-150 µg/ml
[23] = system: Mucor circinelloides; test: Antifungal activity against Mucor circinelloides M5 strain assessed as non-germinated spores and undifferentiated hyphae at 50 ug/ml by microscopic analysis; type: functional, organism-based; conditions: dose 50.0 µg/ml
[24] = system: Mucor circinelloides; test: Antifungal activity against Mucor circinelloides R7B wild type strain assessed as complete absence of mycelia at 100 to 150 ug/ml by microscopic analysis; type: functional, organism-based; conditions: dose 100-150 µg/ml
[25] = system: Mucor circinelloides; test: Antifungal activity against Mucor circinelloides M5 strain assessed as reduction in spore germination at 100 ug/ml relative to control; type: functional; parameters: scale not given: the % may be the effect or the level left; conditions: dose 100 µg/ml
[26] = Cytotoxicity against mouse NIH/3T3 cells assessed as reduction in cell viability at 50 ug/ml incubated for 48 hrs by MTT assay (reference value: 93.8 +/- 4.9 %); type: toxicity, cell-based, NIH3T3; conditions: at 50 µg/mL, read-out: Activity
[27] = system: Mucor circinelloides; test: Antifungal activity against Mucor circinelloides M5 strain assessed as reduction in fungal growth by broth dilution method; type: functional
[28] = system: Nannizzia gypsea; test: Antifungal activity against Microsporum gypseum clinical isolate 1 assessed as reduction in fungal growth by broth dilution method; type: functional
[29] = system: Aspergillus nidulans; test: Antifungal activity against Aspergillus nidulans clinical isolate 1 assessed as reduction in fungal growth by broth dilution method; type: functional
[30] = system: Trichophyton mentagrophytes; test: Antifungal activity against Trichophyton mentagrophytes clinical isolate 3 assessed as reduction in fungal growth by broth dilution method; type: functional
[31] = system: Trichophyton mentagrophytes; test: Antifungal activity against Trichophyton mentagrophytes clinical isolate 1 assessed as reduction in fungal growth by broth dilution method; type: functional
[32] = system: Aspergillus nidulans; test: Antifungal activity against Aspergillus nidulans clinical isolate 2 assessed as reduction in fungal growth by broth dilution method; type: functional
[33] = system: Microsporum canis; test: Antifungal activity against Microsporum canis clinical isolate 3 assessed as reduction in fungal growth by broth dilution method; type: functional
[34] = system: Trichophyton rubrum; test: Antifungal activity against Trichophyton rubrum clinical isolate 1 assessed as reduction in fungal growth by broth dilution method; type: functional
[35] = system: Microsporum canis; test: Antifungal activity against Microsporum canis clinical isolate 1 assessed as reduction in fungal growth by broth dilution method; type: functional
[36] = system: Mucor circinelloides; test: Antifungal activity against Mucor circinelloides R7B wild type strain assessed as reduction in fungal growth by broth dilution method; type: functional
[37] = system: Microsporum canis; test: Antifungal activity against Microsporum canis clinical isolate 2 assessed as reduction in fungal growth by broth dilution method; type: functional
[38] = system: Trichophyton mentagrophytes; test: Antifungal activity against Trichophyton mentagrophytes clinical isolate 2 assessed as reduction in fungal growth by broth dilution method; type: functional
[39] = system: Aspergillus niger; test: Antifungal activity against Aspergillus niger clinical isolate 1 assessed as reduction in fungal growth by broth dilution method; type: functional
[40] = system: Nannizzia gypsea; test: Antifungal activity against Microsporum gypseum clinical isolate 2 assessed as reduction in fungal growth by broth dilution method; type: functional
[41] = system: Trichophyton rubrum; test: Antifungal activity against Trichophyton rubrum clinical isolate 2 assessed as reduction in fungal growth by broth dilution method; type: functional
[42] = system: Epidermophyton floccosum; test: Antifungal activity against Epidermophyton floccosum clinical isolate 1 assessed as reduction in fungal growth by broth dilution method; type: functional

O=[N+]([O-])c1ccc(Oc2cc(-c3cc(F)cc(F)c3)nc3ccccc23)cc1
Activity [1]: 83.9%
Activity [2]: 6.02 U/mg
Activity [3]: 28.3%
Activity [4]: 2.56 U/mg
Activity [5]: Active
Activity [6]: 11.21 U/mg
Activity [7]: 7.9%
Activity [8]: 7.9%
Activity [9]: 16.7 U/mg
Activity [10]: 37.3%
Activity [11]: Active
viability at 48 h, 25 ug/ml [12]: 94.5%
viability at 48 h, 200 ug/ml [13]: 15.5%
Activity [14]: 5.8%
viability at 48 h, 150 ug/ml [15]: 18.3%
Activity [16]: 0.4 U/mg
Activity [17]: Active
Activity [18]: 82.5%
viability at 48 h, 100 ug/ml [19]: 84%
Activity [20]: Active
Activity [21]: Active
Activity [22]: Active
Activity [23]: Active
Activity [24]: Active
Activity [25]: 11.2%
viability at 48 h, 50 ug/ml [26]: 91.8%

Fc1cc(F)cc(-c2cc(Oc3ccccc3)c3ccccc3n2)c1
Activity [1]: 78.5%
Activity [2]: 6.76 U/mg
MIC [27]: 100 µg/mL (≈ 300 µM)
Activity [3]: 34.7%
Activity [4]: 3.28 U/mg
Activity [5]: Active
MIC [28]: 100 µg/mL (≈ 300 µM)
Activity [6]: 13.12 U/mg
MIC [29]: 150 µg/mL (≈ 450 µM)
MIC [30]: 125 µg/mL (≈ 375 µM)
MIC [31]: 125 µg/mL (≈ 375 µM)
Activity [7]: 2.5%
Activity [8]: 6.7%
Activity [9]: 17.96 U/mg
MIC [32]: 150 µg/mL (≈ 450 µM)
Activity [10]: 38.5%
MIC [33]: 100 µg/mL (≈ 300 µM)
Activity [11]: Active
viability at 48 h, 25 ug/ml [12]: 90.7%
viability at 48 h, 200 ug/ml [13]: 12.6%
MIC [34]: 125 µg/mL (≈ 375 µM)
Activity [14]: 1.7%
viability at 48 h, 150 ug/ml [15]: 15%
MIC [35]: 100 µg/mL (≈ 300 µM)
MIC [36]: 150 µg/mL (≈ 450 µM)
Activity [16]: 1.18 U/mg
Activity [17]: Active
Activity [18]: 74.2%
MIC [37]: 100 µg/mL (≈ 300 µM)
viability at 48 h, 100 ug/ml [19]: 20.4%
Activity [20]: Active
MIC [38]: 125 µg/mL (≈ 375 µM)
Activity [21]: Active
Activity [22]: Active
Activity [23]: Active
MIC [39]: 150 µg/mL (≈ 450 µM)
Activity [24]: Active
MIC [40]: 100 µg/mL (≈ 300 µM)
MIC [41]: 125 µg/mL (≈ 375 µM)
Activity [25]: 4.5%
viability at 48 h, 50 ug/ml [26]: 53.3%
MIC [42]: 125 µg/mL (≈ 375 µM)
